What was measured:
[1] = test system: rat neonatal ventricular cardiomyocytes (NRVMs); experiment: Cardiomyocyte apoptosis, AnnexinV-FITC/PI flow cytometry and cleaved caspase-3 western blot; format: cell-based
Method: In FIG. 5A apoptosis in control, BRCA1-overexpressing, doxorubicin-treated and doxorubicin-treated-BRCA1-overexpressing neonatal rat ventricular cardiomyocytes (NRVCM) was assessed by Annexin V-FITC and propidium iodide staining coupled with flow cytometry. Quadrants S1, S2, S3 and S4 respectively represent necrotic, late apoptotic, viable live and early apoptotic NRVCM. FIG. 5B is a representative western blot of cleaved caspase-3 and α-actin proteins in NRVCM infected with either 10 MOI Ad-hBRCA1 or Ad-null vector for 48 hours before being exposed to 2 μM doxorubicin for 24 hours. Data are expressed as mean±SD. n=3. *P<0.05 vs untreated control group. †P<0.01 vs doxorubicin group.
The effect of pifithrin-α on doxorubicin-induced cardiomyocyte apoptosis, with or without overexpression of BRCA1 was examined. […]
BRCA-1 induced gain of function and protection against genotoxic and oxidative stress-induced apoptosis was also examined in vitro. […] Cardiomyocytes were incubated with the virus (human BRCA1 or GFP) for 48 hours after which expression of human BRCA1 or GFP were determined. Expression of BRCA1 was analyzed by real-time PCR and western blotting (see FIGS. 4A and 4B) and expression of GFP was analyzed by live cell video microscopy. […] Based on this observation, 10 MOI was determined to be the best of the three tested concentrations of the adenoviral construct. […]

[2] = test system: BRCA1 and p53 interaction; experiment: Co-immunoprecipitation of BRCA1 and p53 in cardiomyocytes; format: cell-based, rat; details: agent alone
Method: BRCA1 physically interacts with p53 in order to regulate p53 activity in a context dependent manner. Proteins were extracted after treatment and equal amounts (100 μg) of lysates were resolved by SDS PAGE.
Experiments were performed to access the interaction of BRCA1 with p53 in cardiomyocytes. […] Additionally, doxorubicin treatment, in the presence of overexpressing BRCA1 strengthened this association (lane 4, FIG. 6).
For analysis of physical interaction between BRCA1 and p53, cardiomyocytes were maintained and treated in 6-cm culture-dishes. After adenoviral and/or stress treatments, cells were scraped and suspended in 100 μL of RIPA buffer. The total cell lysate was obtained after homogenization and centrifugation at 14,000 g for 30 minutes at 4° C. Protein concentration was determined by the Bradford assay. Aliquots of each fraction (100 μg protein for total cell lysate) were incubated with either 0.5 μg of anti-p53 mouse monoclonal antibody (Cell Signaling Technology, USA) or with 0.5 μg of anti-BRCA1 (Santa Cruz Biotechnology, USA) for 1 hour at 4° C. Addition of protein A-Sepharose (Santa Cruz Biotechnology) and incubation for 16 hours at 4° C. was followed by centrifugation and repetitive washing of the Sepharose beads. […]

[3] = test system: Wild-type mice; experiment: Doxorubicin-induced cardiac dysfunction in mice, echocardiography; details: doxorubicin 10 mg/kg i.p.; echocardiography day 3 and day 7
Method: Left ventricular function was assessed by echocardiography measuring percent systolic ejection fraction 3 days (FIG. 3A) or 7 days (FIG. 3B) after administration of vehicle, Ad-null vector (40 μl of 10^10 PFU, i.v.), Ad-GFP (40 μl of 10^10 PFU, i.v.), doxorubicin (10 mg/kg, i.p.) or doxorubicin (10 mg/kg, i.p.) with Ad-hBRCA1 (40 μl of 10^10 PFU, i.v.). Left ventricular function was also assessed by measuring fractional shortening values 3 days (FIG. 3C) after administration of vehicle, Ad-null vector (40 μl of 10^10 PFU, i.v.), Ad-GFP (40 μl of 10^10 PFU, i.v.), doxorubicin (10 mg/kg, i.p.) or doxorubicin (10 mg/kg, i.p.) with Ad-hBRCA1 (40 μl of 10^10 PFU, i.v.). *P<0.01 vs corresponding PBS group. †P<0.01 vs corresponding doxorubicin group. # p<0.01 vs. PBS+ad-GFP, ## p<0.001 vs. Dox+ad-BRCA1. n=3 for PBS and GFP groups; n=7 for doxorubicin and doxorubicin-BRCA1 groups. […]
Double-blinded echocardiography was performed on the doxorubicin- and adenoviral vectors-treated mice 3 days and 7 days post-treatment. […] End-diastolic posterior LV wall thickness, LV end-diastolic (LVEDD) and end-systolic LV dimension (LVESD) were measured. During diastole, LV dimension and wall thickness were measured from the maximum chamber cavity; during systole, they were measured during maximum anterior motion of the posterior wall. […]

[4] = test system: p53; experiment: Western blot for p53 and phospho-p53 in cultured cardiomyocytes; format: cell-based, rat; details: NRVMs
Method: GAPDH was used as loading control. Phospho-p53 antibodies were directed against serine 15 of p53 protein.
Cardiomyocytes were infected with 10MOI of a replication deficient adenoviral vector containing the CMV promoter and either human BRCA1 or a null vector (human Adenovirus Type5 dE1/E3, Vector Biolabs, USA). Following 48 hours incubation, cardiomyocytes were treated with 21 μM of doxorubicin or 50 μM of H2O2. The inhibitor of p53, pifithrin-α (10 μm, Sigma Aldrich, USA) was added 2 hrs prior to the addition of doxorubicin or hydrogen peroxide. After 24 hours, cardiomyocytes were either trypsinized and collected for flow cytometry or harvested for protein and RNA extraction.

[5] = test system: HUVECs; experiment: HUVEC apoptosis assays (Annexin V-FITC/PI flow cytometry, cleaved caspase-3, DNA fragmentation); format: cell-based, human; details: ad-null infected HUVECs, 2 μM doxorubicin 24 hours
Method: In FIG. 23A ad-null or ad-BRCA1 infected HUVECs were treated with TNFα (20 ng/ml) for 24 hours. Cells were harvested for Annexin V-FITC and Propidium Iodide staining followed by flow cytometry. Total apoptotic cells are shown as mean±SD (n=3 in triplicate, **p<0.01). In FIG. 23B, HUVECs were treated with either siBRCA1 (10 nM) or scrambled siRNA (10 nM) for 24 hours. BRCA1-silenced and control HUVECs were treated with TNFα (20 ng/ml), stained with Annexin V-FITC and Propidium Iodide, and analyzed by flow cytometry. The percentage of total apoptotic cells are presented as mean±SD (n=3 in triplicate, **p<0.01). […] Data was calculated as the percentage of total apoptotic cells and presented as mean±SD (n=3 in triplicate, **p<0.01).
FIG. 31 is a bar graph showing protection of HUVECs against doxorubicin-induced apoptosis by BRCA1 overexpression. […] Data was calculated as the percentage of total apoptotic cells and presented as mean±SD (n=3 in triplicate, *p<0.01 vs. Ad-null group, †p<0.01 vs. Ad-null+2 μM Dox group). […]
Human umbilical vein endothelial cells (HUVECs) were purchased from Cambrex and cultured in MCDB-131 complete medium (Cambrex Corporation). […] These concentrations were determined from pilot optimization studies. […]
Apoptotic and necrotic cell death were assessed in ad-BRCA1 and ad-null infected HUVECs by flow cytometry coupled with the BD Annexin V-FITC Apoptosis Detection Kit. […]

| Structure (SMILES) | number of apoptotic cardiomyocytes ([1]; BRCA1-overexpressing cardiomyocytes treated with doxorubicin and PFT-α) | number of apoptotic cells ([1]; cardiomyocytes treated with doxorubicin, PFT-α 10 μm added 2 hrs prior, vs doxorubicin only) | BRCA1 and p53 association [2] | cardiac function (percent systolic ejection fraction, fractional shortening) [3] | p53 level ([4]; agent on its own) | serine-15 phosphorylation of p53 ([4]; doxorubicin alone) | apoptosis [5] |
| --- | --- | --- | --- | --- | --- | --- | --- |
| Cc1ccc(C(=O)Cn2c3c(sc2=N)CCCC3)cc1 [PFT-α, pifithrin-α] | no further reduction | significant reductions | – | – | – | – | – |
| COc1cccc2c1C(=O)c1c(O)c3c(c(O)c1C2=O)C[C@@](O)(C(=O)CO)C[C@@H]3O[C@H]1C[C@H](N)[C@H](O)[C@H](C)O1 [doxorubicin] | – | – | decline | impairment in cardiac function | upregulated p53 | activated | prevalent |
